How the values were obtained:
[1] = target: T1, Serine/threonine-protein kinase Chk1 (Homo sapiens) (UniProt O14757); assay: Inhibition of human full length CHK1 expressed in baculovirus assessed as substrate phosphorylation using fluorescence-labelled peptides as substrate at 8 uM after 90 mins by microfluidic peptide phosphorylation assay
T1 sequence (whole entry): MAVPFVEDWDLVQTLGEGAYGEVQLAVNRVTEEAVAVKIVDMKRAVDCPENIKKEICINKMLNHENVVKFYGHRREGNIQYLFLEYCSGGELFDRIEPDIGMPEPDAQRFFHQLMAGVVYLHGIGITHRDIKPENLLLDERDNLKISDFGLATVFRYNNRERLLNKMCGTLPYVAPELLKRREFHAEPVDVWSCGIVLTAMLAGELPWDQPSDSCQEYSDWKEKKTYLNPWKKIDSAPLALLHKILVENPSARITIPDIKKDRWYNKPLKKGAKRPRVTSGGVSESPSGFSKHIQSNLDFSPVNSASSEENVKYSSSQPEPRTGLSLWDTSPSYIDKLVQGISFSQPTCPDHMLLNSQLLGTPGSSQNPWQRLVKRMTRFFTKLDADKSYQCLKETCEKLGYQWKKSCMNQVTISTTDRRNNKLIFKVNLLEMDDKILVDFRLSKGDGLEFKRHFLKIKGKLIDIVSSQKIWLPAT

[2] = target: T2, Serine/threonine-protein kinase D1 (Homo sapiens) (UniProt Q15139); assay: Inhibition of human full length PKD1 expressed in baculovirus assessed as substrate phosphorylation using fluorescence-labelled peptides as substrate at 9 uM after 90 mins by microfluidic peptide phosphorylation assay
T2 sequence (whole entry): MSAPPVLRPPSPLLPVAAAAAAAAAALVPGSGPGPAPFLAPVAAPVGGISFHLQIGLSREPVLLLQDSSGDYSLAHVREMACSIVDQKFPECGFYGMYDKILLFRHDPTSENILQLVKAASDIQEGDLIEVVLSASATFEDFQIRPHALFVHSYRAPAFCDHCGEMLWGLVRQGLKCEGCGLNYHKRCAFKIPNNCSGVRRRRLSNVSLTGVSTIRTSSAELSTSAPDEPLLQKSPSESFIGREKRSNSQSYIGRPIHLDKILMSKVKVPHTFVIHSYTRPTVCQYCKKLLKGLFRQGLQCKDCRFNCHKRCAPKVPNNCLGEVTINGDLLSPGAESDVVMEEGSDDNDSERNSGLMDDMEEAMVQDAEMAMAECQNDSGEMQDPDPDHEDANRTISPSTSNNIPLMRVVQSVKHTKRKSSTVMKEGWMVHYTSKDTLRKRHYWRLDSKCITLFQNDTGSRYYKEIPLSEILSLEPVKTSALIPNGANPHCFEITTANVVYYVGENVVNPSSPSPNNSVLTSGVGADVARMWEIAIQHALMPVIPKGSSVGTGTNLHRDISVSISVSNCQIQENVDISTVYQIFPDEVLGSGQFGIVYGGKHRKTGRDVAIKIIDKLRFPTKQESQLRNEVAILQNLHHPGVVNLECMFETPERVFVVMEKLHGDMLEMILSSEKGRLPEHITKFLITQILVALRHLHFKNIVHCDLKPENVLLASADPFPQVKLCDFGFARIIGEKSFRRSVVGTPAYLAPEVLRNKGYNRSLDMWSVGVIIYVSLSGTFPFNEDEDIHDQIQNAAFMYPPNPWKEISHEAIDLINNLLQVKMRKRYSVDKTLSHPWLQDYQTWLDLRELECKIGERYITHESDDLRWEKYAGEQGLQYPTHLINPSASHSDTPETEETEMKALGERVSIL

[3] = target: T3, Serine/threonine-protein kinase D2 (Homo sapiens) (UniProt Q9BZL6); assay: Inhibition of human full length PKD2 expressed in baculovirus assessed as substrate phosphorylation using fluorescence-labelled peptides as substrate at 95 uM after 90 mins by microfluidic peptide phosphorylation assay
T3 sequence (whole entry): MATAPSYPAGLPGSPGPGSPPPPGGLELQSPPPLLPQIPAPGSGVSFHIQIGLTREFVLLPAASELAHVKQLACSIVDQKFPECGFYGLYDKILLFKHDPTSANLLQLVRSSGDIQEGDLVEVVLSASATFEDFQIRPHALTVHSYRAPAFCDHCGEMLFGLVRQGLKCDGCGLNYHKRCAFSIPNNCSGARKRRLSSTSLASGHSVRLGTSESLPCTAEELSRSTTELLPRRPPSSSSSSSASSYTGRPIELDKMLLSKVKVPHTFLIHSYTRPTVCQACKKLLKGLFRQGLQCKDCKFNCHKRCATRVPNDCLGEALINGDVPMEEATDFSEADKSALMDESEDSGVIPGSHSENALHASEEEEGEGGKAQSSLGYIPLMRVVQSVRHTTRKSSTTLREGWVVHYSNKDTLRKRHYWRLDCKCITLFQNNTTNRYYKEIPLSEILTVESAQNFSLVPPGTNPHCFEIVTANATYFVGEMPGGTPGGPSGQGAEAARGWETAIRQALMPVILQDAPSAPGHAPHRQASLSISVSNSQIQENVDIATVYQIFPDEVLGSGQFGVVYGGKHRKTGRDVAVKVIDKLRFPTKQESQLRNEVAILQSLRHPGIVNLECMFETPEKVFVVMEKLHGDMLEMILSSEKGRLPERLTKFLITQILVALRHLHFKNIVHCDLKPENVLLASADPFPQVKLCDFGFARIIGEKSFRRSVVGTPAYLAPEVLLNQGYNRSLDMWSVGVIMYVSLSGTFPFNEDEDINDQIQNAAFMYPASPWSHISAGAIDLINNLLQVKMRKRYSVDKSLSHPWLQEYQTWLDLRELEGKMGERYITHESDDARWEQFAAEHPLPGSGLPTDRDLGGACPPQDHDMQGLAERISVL

[4] = test system: Tyrosine-protein kinase ABL1 (Homo sapiens), P00519 [T315I]; assay: Inhibition of human truncated ABL T315I mutant expressed in baculovirus assessed as substrate phosphorylation using fluorescence-labelled peptides as substrate at 420 uM after 90 mins by microfluidic peptide phosphorylation assay

SMILES: NCC1CCN(c2ncnc3[nH]ccc23)CC1
- inhibition [1]: 0%

SMILES: NCC1CN(c2ncnc3[nH]c4cnccc4c23)CCO1 (centres undefined)
- inhibition [2]: 76%

SMILES: NCCc1ccc(-c2ncnc3[nH]cnc23)cc1
- inhibition [3]: 77.5%

SMILES: c1nc(N2CCOCC2)c2nc[nH]c2n1
- inhibition [4]: 73%
